This is an account of results in US7939569B1, “Aniline analogs as glycogen synthase activators” (Hoffmann-La Roche Inc., priority 2009, dated 2011).

By EC50 is commonly meant the concentration giving half of the maximal effect. The low end stands for greater potency, the high end for weaker potency.

The subject of the experiment is glycogen synthase. Description: Glycogen Synthase (GS) Assay. Particulars: for EC50: compound concentration needed to give 50% maximum activation; for GS SC200: compound concentration needed to stimulate 200% of the enzyme activity. The format is biochemical. The method, then:
Twelve μL per well of substrate solution containing glycogen (4.32 mg/'ml), 2.67 mM UDP-glucose, 21.6 mM phospho(enol)pyruvate and 2.7 mM NADH in 30 mM glycylglycine, pH 7.3 buffer was added into a polystyrene 384-well assay plate (BD Biosciences).
Compound solutions (8 μL/well) at various concentrations (0-300 μM) were added to the assay plate (columns 5-24). Compound solution contains 30 mM glycylglycine, pH 7.3, 40 mM KCl, 20 mM MgCl2, 9.2% DMSO, with (columns 15-24) or without (columns 5-14) 20 mM glucose 6-phosphate.
Enzyme solution (12 μL/well) containing glycogen synthase (16.88 μg/ml), pyruvate kinase (0.27 mg/ml), lactate dehydrogenase (0.27 mg/ml) in 50 mM Tris-HCl, pH 8.0, 27 mM DTT and bovine serum albumin (BSA, 0.2 mg/ml) was added to the assay plate (columns 3-24). As a blank control, enzyme solution without glycogen synthase was added into the top half wells of columns 1-2. To the bottom half wells of columns 1-2 were added a known activator, glucose 6-phosphate (at final concentration 5 mM) in addition to the enzyme solution. The reaction mixture was incubated at room temperature. The assay plate was then read for absorbance at 340 nm on an Envision reader every 3 minutes up to a total of 15 minutes.
The enzyme activity (with or without compound) was calculated by the reaction rate and represented by the optical density change (SOD) per minute. Percent stimulation of glycogen synthase activity by a compound at various concentrations was calculated by the following formula: % stimulation=100*Rs/Rt, Where Rs is the reaction rate of the enzyme in the presence of compound and Rt is the reaction rate of the enzyme in the absence of compound.
SC200 is defined as the compound concentration that is needed to stimulate 200% of the enzyme activity. EC50 is defined as the compound concentration that is needed to give 50% maximum activation.

Regarding `O=C(Nc1cccc(COc2ccc(-c3ccc(F)cc3F)cc2)c1)[C@H]1CCC[C@H]1C(=O)O` (racemic) [Example 2, (trans)-2-[3-(2′,4′-Difluoro-biphenyl-4-yloxymethyl)-phenylcarbamoyl]-cyclopentanecarboxylic acid], the 50% effective concentration (EC50) was 5.93 µM and the “GS SC200” value was determined as 3.24 µM.

In the case of `O=C(Nc1cccc(COc2ccc(-c3ccc(F)cc3F)cc2)c1)C1CCC[C@H]1C(=O)O` (stereo in doubt) [Example 3, (1R,2R)-2-[3-(2′,4′-Difluoro-biphenyl-4-yloxymethyl)-phenylcarbamoyl]-cyclopentanecarboxylic acid], it took 4.4 µM to reach a half-maximal effect (EC50) and the “GS SC200” value was determined as 1.3 µM.

Consider `O=C(O)C1CCC[C@@H]1C(=O)Nc1cccc(COc2ccc(-c3ccc(F)cc3F)cc2)c1` (stereo in doubt) [Example 4, (1S,2S)-2-[3-(2′,4′-Difluoro-biphenyl-4-yloxymethyl)-phenylcarbamoyl]-cyclopentanecarboxylic acid], for which the response was half-maximal at 6.15 µM (EC50) and the “GS SC200” value worked out at 2.09 µM.

Regarding `O=C(O)[C@H]1CCC[C@H]1C(=O)Nc1cccc(COc2ccc(-c3ccc(F)cc3F)cc2)c1` (stereo in doubt) [Example 6, (1S,2R)-2-[3-(2′,4′-Difluoro-biphenyl-4-yloxymethyl)-phenylcarbamoyl]-cyclopentanecarboxylic acid], the EC50 stood at 3.14 µM and the “GS SC200” value turned out to be 0.77 µM.

As for `O=C(O)CCC(=O)Nc1cccc(COc2ccc(-c3ccc(F)cc3F)cc2)c1` [Example 1, N-[3-(2′,4′-Difluoro-biphenyl-4-yloxymethyl)-phenyl]-succinamic acid], a half-maximal effect (EC50) was put at 6.96 µM and the “GS SC200” value amounted to 2.69 µM.

Take `O=C(Nc1cccc(COc2ccc(-c3ccc(F)cc3F)cc2)c1)[C@H]1CCC[C@H]1C(=O)O` [Example 5, (1R,2S)-2-[3-(2′,4′-Difluoro-biphenyl-4-yloxymethyl)-phenylcarbamoyl]-cyclopentanecarboxylic acid]: the EC50 is 2.84 µM and the “GS SC200” value came out at 0.65 µM.

Regarding `COc1cc(F)c(F)cc1-c1ccc(OCc2cccc(N3CCC[C@H]3C(=O)O)c2)cc1` [Example 7, (S)-1-[3-(4′,5′-Difluoro-2′-methoxy-biphenyl-4-yloxymethyl)-phenyl]-pyrrolidine-2-carboxylic acid], a half-maximal response (EC50) required 3.71 µM and the “GS SC200” value was found to be 0.7 µM.

For `COc1cc(F)c(F)cc1-c1ccc(OCc2cccc(N3CCC[C@H]3CC(=O)O)c2)cc1` [Example 8, {(S)-1-[3-(4′,5′-Difluoro-2′-methoxy-biphenyl-4-yloxymethyl)-phenyl]-pyrrolidin-2-yl}-acetic acid], the EC50 was 6.37 µM and the “GS SC200” value came out at 2.43 µM.

`COc1cc(F)c(F)cc1-c1ccc(OCc2cccc(N(CC(=O)O)C(C)=O)c2)cc1` [Example 9, {Acetyl-[3-(4′,5′-difluoro-2′-methoxy-biphenyl-4-yloxymethyl)-phenyl]-amino}-acetic acid]: the EC50 stood at 1.02 µM and the “GS SC200” value was determined as 0.33 µM.

For `CS(=O)(=O)Nc1cccc(COc2ccc(-c3cc(F)c(F)cc3F)cc2)c1` [Example 10, N-[3-(2′,4′,5′-Trifluoro-biphenyl-4-yloxymethyl)-phenyl]-methanesulfonamide], a half-maximal response (EC50) required 5.71 µM and the “GS SC200” value came to 2.41 µM.

With `COc1cc(F)c(F)cc1-c1ccc(OCc2cccc(NS(C)(=O)=O)c2)cc1` [Example 11, N-[3-(4′,5′-Difluoro-2′-methoxy-biphenyl-4-yloxymethyl)-phenyl]-methanesulfonamide], the EC50 was found to be 2.75 µM and the “GS SC200” value was determined as 1.1 µM.

With `O=S(=O)(Nc1cccc(COc2ccc(-c3cc(F)c(F)cc3F)cc2)c1)C(F)(F)F` [Example 12, C,C,C-Trifluoro-N-[3-(2′,4′,5′-trifluoro-biphenyl-4-yloxymethyl)-phenyl]methanesulfonamide], the EC50 worked out at 1.48 µM and the “GS SC200” value turned out to be 0.95 µM.

As for `COc1cc(F)c(F)cc1-c1ccc(OCc2cccc(NS(=O)(=O)C(F)(F)F)c2)cc1` [Example 13, N-[3-(4′,5′-Difluoro-2′-methoxy-biphenyl-4-yloxymethyl)-phenyl]-C,C,C-trifluoromethanesulfonamide], the EC50 was found to be 0.44 µM and the “GS SC200” value was 0.18 µM.
